Data: US20220017444A1, “BENZ[…] SURFACTANTS” (INDORAMA VENTURES OXIDES LLC, priority 2018, published 2022)

Test: Surface tensiometer characterization: critical micelle concentration and surface tension
Type: physicochemical
Details: surface tensiometer; FIG. 2
Excerpt: Dibenzhydryl resorcinol ethoxylates produced in Example 2 were characterized using a surface tensiometer to determine critical micelle concentration and surface tension.

## Dibenzhydryl Resorcinol Ethoxylate
  critical micelle concentration: 4 ppm
